A value given as a limit tells only on which side of the number the result lay.

As usually defined, the melting point is the temperature, or range, at which the solid turns liquid. The compound `CCOCCNC(=O)Oc1cccc(NC(=O)C=C(C)OC)c1` returned a melting point of 133 to 134 °C.

In turn, `Nc1ncc2c(n1)-c1ccc(-c3ccccc3)cc1C(c1ccc(Cl)c(Cl)c1)C2` (stereo not drawn) gave a melting point of 186 to 187 °C.

The compound `COc1cccc2[nH]c(=O)n3c(=O)[nH]nc3c12` returned a melting point greater than 350 °C. In the case of `OCc1cn(Cc2ccc(OCc3ccccc3)cc2)nc1-c1ccc(F)cc1` it was 112 to 113 °C; in that of `C[Si](C)(C)CCCOc1ccc(O)c(C(=O)O)c1`, 115 to 116 °C.

As for `Cc1ccc(C=Nc2ccc(Cl)cc2Cl)c(C)c1`, the melting point was 102 to 106 °C. As for `CS(=O)(=O)c1ccc(Cl)c(C(=O)Nc2ccc(-n3nc(C4CC4)cc3C3CC3)cc2)c1`, the melting point lay within 60 to 65 °C.

On to `Clc1ccc(Cc2cccc(-c3ncc4c(n3)CCCC4)n2)cn1`, for which the melting point lay within 115 to 120 °C. On to `Fc1cccc(F)c1-c1ccncc1`, for which the melting point fell in the range of 113 to 114 °C. In the case of `C=C(OCCCC)c1ccc(NC(C)=O)nc1` it was 55 to 58 °C; in that of `CC1(C)CCCC=C1c1ccc(C(=O)O)cc1`, 181 °C; in that of `CC(C)(C)OC(=O)[C@H]1CCCN1S(=O)(=O)c1ccc2c(Br)cnc(Cl)c2c1`, 128 to 130 °C. The compound `CC(=O)N(C(C)=O)c1c(C#N)cnn1-c1ccc(Cl)c(Cl)c1Cl` showed a melting point of 163 to 165 °C. Under `O=S(=O)(NC=NCCCOc1cccc(CN2CCCCC2)c1)c1ccc(Cl)cc1` stands 75 to 79 °C. In turn, `CCON=C(C)c1cccnc1` displayed a melting point of 160 to 162 °C. Under `CN1C(C)(C)CC2(CC1(C)C)NC(=O)N(CC(O)COC(=O)CCCCC(=O)OCC(O)CN1C(=O)NC3(CC(C)(C)N(C)C(C)(C)C3)C1=O)C2=O` (stereo not drawn) stands 180 to 184 °C; under `Cn1cnc2c1c(=O)n(CCCBr)c(=O)n2C`, 142 to 144 °C. Under `COc1cccc(C(=O)N2CCc3cc(S(=O)(=O)N4CCN(c5cccc(Cl)c5)CC4)ccc32)c1` stands 155 to 156 °C; under `CSc1nnc(-c2ccc3occ(-c4ccccc4Cl)c3c2)o1`, 137 to 138 °C. In the case of `O=C1CN(c2nccc(Oc3ccc(NC(=O)c4cc(F)cc(N5CCOCC5)c4)c4ccccc34)n2)CCN1` it was 108 to 110 °C; in that of `CCOC(=O)c1cc2c(C(=O)CN(Cc3ccccc3)C(C)CC(=O)OC)ccc(OCc3ccccc3)c2[nH]1` (stereo not drawn), 120 to 123 °C; in that of `Cc1cccc(-c2cccc3c2OC(CN)C3)c1C` (stereo not drawn), greater than 225 °C.

With `CC(C)(C)OC(=O)Nc1ccc(-c2ccccc2F)cc1NC(=O)CC(=O)c1sccc1C#N`, the melting point was 63 to 66 °C.

`O=C1/C(=C(\NCCO)c2ccccc2)Sc2ccccc21` gave a melting point of 122 to 123 °C. The compound `Cc1ccc(S(=O)(=O)NC(C)(C)C(C)C)cc1` registered a melting point of 80 to 89 °C. As to `CCCCOc1cc(/C=C/C(=O)NS(=O)(=O)CCC(C)C)n(Cc2ccc(C(F)(F)F)cc2Cl)n1`, the melting point lay within 89.5 to 90.5 °C. In turn, `COCc1nc2c(NCc3c(C)cccc3C)cc(C(=O)N(C)C)cc2n1C` came in with a melting point of 156 to 157 °C. In the case of `Cc1ccc2c(c1)CC(N1CCN(CCN3CCOC3=O)CC1)c1cc(C)ccc1O2` (stereo not drawn) it was 145 to 147 °C; in that of `CC(=O)N1CCC(c2nccc3occc23)CC1`, 108 to 110 °C; in that of `CS(=O)(=O)c1cc(CCC(=O)O)cc(-c2nc(=O)c3ccccc3s2)n1`, 306 °C. `O=C(O)COc1cccc2c1Cc1sc(S(=O)(=O)CC=Cc3ccccc3)nc1-2` had a melting point of 212 to 214 °C.

As to `CCC(=O)OC(C)c1ccc(O)cc1` (single isomer, unassigned; (+)), the melting point lay in the range of 71 to 72 °C. In turn, `Cc1cc(C(=O)O)cc2c3ccccc3n(Cc3ccccc3)c12` gave a melting point greater than 240 °C. `CCc1cnc2c(NC(=O)c3c(Cl)cccc3Cl)cccc2c1C(=O)O` registered a melting point of 231 to 233 °C. With `O=C(O)C=Cc1nn(-c2ccccc2)c2c1CCC2`, the melting point was determined as 223 °C. In the case of `CCOC(=O)/C=C/c1cc(-n2ncnn2)cc(C)c1N` it was 162 to 165 °C. In the case of `COc1cccc(-c2ccccc2CNC(=O)C(C)C)c1` it was 103 to 105 °C. Compound `CC(C)(C)c1ccc(N2CC(COC(=O)c3ccccc3C(=O)O)CC2=O)cc1` (stereo not drawn) came in with a melting point of 155 to 157 °C. On to `CC(C)Oc1ccc2c(c1)N(C)C(=O)N(c1ccc(CC(=O)O)cc1)S2(=O)=O`, for which the melting point lay in the range of 232 to 233 °C. `CN(CCOc1ccc(CCOCCc2ncn[nH]2)cc1)c1nc2ccccc2o1` registered a melting point of 127 to 129 °C. Under `COC(=O)CCc1oc(-n2ccnc2SC)nc1-c1ccc(Cl)cc1` stands 88 to 89 °C; under `O=c1[nH]c(=Cc2ccc(OCc3ccncc3)cn2)c(=O)[nH]c1=Cc1ccccc1`, 254 to 255 °C. Regarding `Cc1ccc(S(=O)(=O)OCC2Cc3c(C(F)(F)F)ccc(Cl)c3O2)cc1` (stereo not drawn), the melting point lay in the range of 89 to 92 °C.

In turn, `CC1CCC(=NN)c2ncc(C(=O)O)c(=O)n21` (stereo not drawn) registered a melting point of 202 to 203 °C. With `O=c1ccn(CC(O)CO)c(Cc2ccccc2)c1O` (stereo not drawn), the melting point fell in the range of 185 to 186 °C.

In turn, `Cc1c(F)c(F)c(CNc2ccc(O)c(C(=O)O)c2)c(F)c1F` displayed a melting point of 212 °C. The compound `Cc1ccccc1CC(=O)Nc1cc(C)c(S(=O)(=O)C[N+](=O)[O-])c(C)c1` had a melting point of 188 to 190 °C. `COc1ccc(-c2c3c(c(C)c4ccc(OC)cc24)C(=O)NC3)cc1`: the melting point fell in the range of 235 to 237 °C. Compound `O=C(c1ccccc1)c1cc([N+](=O)[O-])ccc1NCc1ccccc1` yielded a melting point of 120 °C.

For the compound `O=c1ccc(-c2c(-c3ccccc3)nn3ccccc23)nn1[C@H]1CCNC1`, the melting point lay in the range of 144 to 146 °C. In the case of `COC(=O)C(=Cc1cc(OC)c(OC)cc1Br)c1ccccc1C(=O)OC`, the melting point lay in the range of 117 to 119 °C. In the case of `COc1ccc(Cn2c(=O)oc(=O)c3cccnc32)cc1` it was 160 °C; in that of `NC(=O)c1nc2ccccc2cc1OCCCN1CCN(c2cccc3sccc23)CC1`, 153 to 154 °C. In the case of `CC1(C)COc2ccc(Cl)cc21` it was 64 to 66 °C.

Consider `CCOC(=O)CCNC(=O)CN1CCOc2ccc(NC(=O)NCc3ccccc3)cc2C1=O`, for which the melting point was 70 to 75 °C. In the case of `C=CC[C@@H]1C[C@@H](COc2ccc(CCCCNC(=O)OC(C)(C)C)cc2)N(CCc2ccc3ccccc3c2)C1=O` it was 79 to 83 °C. Consider `O=C(c1ccccc1)c1nc(Cl)ccc1[N+](=O)[O-]`, for which the melting point is 107 °C. With `CCCCc1nc2cnc3cccnc3c2n1CCOc1ccccc1`, the melting point is 150 °C. In turn, `COc1ccc2c(c1)c(CNc1ccccc1Oc1ccc(Cl)cc1)cn2C(C)=O` had a melting point of 140 to 141 °C.

As for `O=C1N[C@H](Cc2ccc(C(F)(F)F)o2)[C@H](c2ccc(F)cc2)O1` (racemic), the melting point was 177 to 179 °C.

`CN(C)CCN(C)C(=O)Cc1ccc(NC(=O)c2ccc(-c3ccccc3)cc2)cc1`: the melting point was in the range of 135 to 136 °C. The compound `O=C(Nc1ccccc1)Nc1ccc2ccc(Cl)nc2n1` returned a melting point of 276 °C.

With `Cc1[nH]c2ncnc(N3CCCc4ccccc43)c2c1C`, the melting point lay within 263 to 264 °C. In the case of `CN1CCCC2(OCCO2)C1Cc1cccc2[nH]ccc12` (stereo not drawn) it was 181 to 186 °C; in that of `Cc1cc(Br)cnc1CCCCNC1=NS(=O)(=O)c2cc(S(N)(=O)=O)ccc21`, 219 to 221 °C. Regarding `COc1ccc(C(=O)NC(=O)N2CC2C#N)cc1` (stereo not drawn), the melting point fell in the range of 130 to 132 °C. Compound `Cc1nccc2c1ccc(=O)n2C` showed a melting point of 203 to 205 °C. Under `CCCc1nn(C)c(C(N)=O)c1NC(=O)c1sccc1OCC` stands 103 to 104 °C. In the case of `CC(C)(C)OC(=O)NC(Cc1ccccc1)C(O)C(Cc1ccccc1)NC(=O)[C@H](CC(N)=O)NC(=O)OCc1ccccc1` (stereo partly drawn) it was 216 to 217 °C; in that of `Nc1ncc(-c2ccc(=O)[nH]n2)c(-c2cccc(F)c2)n1`, 249 °C; in that of `O=C(N[C@H]1CCC[C@@H]1O)C(O)=CC(=O)c1cc(Cc2ccc(F)cc2F)cn(Cc2ccc(F)cc2)c1=O`, 85 to 86 °C. For the compound `O=C(O)C(C(=O)O)C1c2ccccc2CCc2ccccc21`, the melting point turned out to be 183 °C. Under `Cc1nccn1-c1ccc(COc2cccc(C3(C(N)=O)CCOCC3)c2)cc1` stands 183 to 186 °C; under `FC(F)(F)c1cccc(N2CCN(CC[C@H]3CC[C@H](Nc4ncccn4)CC3)CC2)c1`, 167 °C; under `O=C1C2=C(CCCC2)C(=O)N1c1cccc(O)c1`, 196 to 198 °C.

As to `CCCCCCCCCCSCCCN=C=O`, the melting point lay in the range of 89 to 92 °C. Compound `Cc1nc(C#N)sc1-c1ccncc1` gave a melting point of 169 to 170 °C. `N#Cc1cc(-c2ccoc2)c2ccc(COc3cc(F)cc(-c4ccoc4)c3)cc2n1` registered a melting point of 156 to 159 °C. Under `Cn1ncc(/C=C/C(=O)Nc2ccc(Cc3nc4ccccc4o3)cc2)c1-c1ccc(F)cc1` stands 195 to 196 °C. Under `CC(C)(C)c1cc(OCCCCCCC(=O)O)cc(C(C)(C)C)c1` stands 88 to 90 °C; under `CC1(C)SC2C(N3C(=O)C(C4=CCC=CC4)NC3(C)C)C(=O)N2C1C(=O)O` (stereo not drawn), 186 °C; under `CC(C)(C)OC(=O)C(N)CCCCNC(=O)c1ccc(Cl)c(S(N)(=O)=O)c1` (stereo not drawn), 158 to 160 °C.

Take `O=C(Nc1ccc(C(=O)N2CCc3nc(-c4ccccn4)[nH]c3-c3ccccc32)cc1)c1ccccc1-c1ccccc1`: the melting point was in the range of 240 to 242 °C. In the case of `COc1ccccc1C1CC(=O)Oc2ccc(C)cc21` (stereo not drawn) it was 140 °C.

The compound `NC(=O)CN1C(=O)C(=Cc2ccc(OCCc3ccccc3)c(OCc3ccccc3)c2)SC1=S` gave a melting point of 212 to 214 °C. The compound `Cc1ccc(S(=O)(=O)c2ccccc2)nc1` showed a melting point of 117 to 118 °C. Under `COC(=O)c1ncccc1NC(=O)C(C)CSC(C)=O` (stereo not drawn) stands 54 to 56 °C; under `COc1ccc(Sc2c([N+](=O)[O-])ccc(Cl)c2C(=O)O)cc1`, 154 to 157 °C.

The values are drawn from a melting point compilation (Tetko et al.; mined from patent text by program, amines drawn as free bases though some values may be those of a salt).
